Measured values taken from patent US8076295B2, “Peptide amphiphiles having improved solubility and methods of using same” (Nanotope, Inc., priority 2007, dated 2011).
“Also recorded” adds a separate entry of the source. Where a SMILES comes first, the peptide text is derived from it. The star is where a group is joined. Palmitoyl = CCCCCCCCCCCCCCCC(=O)*

How the values were obtained:
Assay type in all cases: physicochemical
[1] = Solubility in aqueous ammonium hydroxide buffer; conditions: for solubility: water containing 0.1 vol % ammonium hydroxide, water containing 0.1% by volume ammonium hydroxide
Protocol: SEQ ID NO:2 or SEQ ID NO:4 was dissolved at 20 mg/mL in an aqueous solution with sufficient ammoniumhydroxide to obtain a pH of 9. This solution was purified in 5 mL aliquots using an Agilent, Inc. model 1100 preparative HPLC equipped with a Phenomenex, Inc. Gemini® 5 μm C18 column (100×30 mm). An elution gradient of water and acetonitrile (each containing 0.1 vol % ammonium hydroxide buffer) was used, as shown in FIG. 2A. The flow rate was 15 mL/min, and the mobile phase was pre-heated to ca. 45° C. using a Timberline Instruments TL-105 column heater.
While the amino acid sequence change between SEQ ID NO:2 and SEQ ID NO:6 appears at first glance to be relatively minor, it nevertheless confers several important and unexpected consequences. The additional glutamic acid residue increases the aqueous solubility and broadens the type of aqueous buffers in which the molecule is soluble. Absent this modification, the only amino acid side chains that are ionized under physiological conditions in SEQ ID NO:6 form a zwitterion (e.g. Glu-Ile-Lys), which limits the molecule's solubility in most aqueous buffers. […] This change has important implications for the manufacturability and clinical development of the peptide amphiphile, as solubility in an ammonium hydroxide buffer greatly facilitates purification by HPLC.
This seemingly insignificant modification (the deletion of one methylene group from the residue) results in a greater than 20-fold increase in aqueous solubility of the peptide amphiphile in an ammonium hydroxide buffer, greatly facilitating purification by HPLC (see FIG. 2D).

[2] = Gelation kinetics and rheological properties of gels formed in artificial cerebrospinal fluid (rheometer); conditions: for tan(δ) (loss modulus divided by storage modulus): gel in artificial cerebrospinal fluid
Protocol: Chemical structures for these molecules are also depicted in FIG. 1. Experiments were performed to examine the gelation kinetics and rheological properties of SEQ ID NO:2 with SEQ ID NO:6. Peptide amphiphile samples were dissolved in water at a concentration of 10 mg/mL.
A Physica, Inc. MCR 300 Molecular Compact Rheometer equipped with a 25 mm plate was used to measure stiffness of gels formed by SEQ ID NO:2 and SEQ ID NO:6 in vitro. Samples were measured at 21° C., 0.5% shear strain, with a frequency (ω) of 10 Hz and a gap between the plates of 0.5 mm. G′ (storage modulus) and […] were measured with respect to time post-gelation.
Tan(δ) (defined as the loss modulus divided by the storage modulus) quantifies the balance between energy loss and energy storage in a material, regardless of viscosity.

[3] = Dissolution in water on pH adjustment with NaOH; conditions: 5 mg/mL in water, pH adjusted to 7.0-7.5 with NaOH
Protocol: The lyophilized peptide amphiphile powder was weighed and re-dissolved in USP pharmaceutical grade water at a concentration of 5 mg/mL. The colloidal suspension obtained was agitated in an ultrasonic bath for 30 min.

[4] = 21° C., 0.5% shear strain, 10 Hz

Compound | solubility (in words) ([1]; 0.1 vol % ammonium hydroxide aqueous buffer) | solubility [1] [mg/mL] | tan(δ) (loss modulus divided by storage modulus) [2, 4] | self-assembly / gel formation induced by artificial CSF ([2]; 10 mg/mL in water mixed with equal volume of artificial CSF) | complex shear modulus (G*) compared with SEQ ID NO:6 ([2]; one hour post-gelation, 10 mg/mL solution mixed with equal volume of artificial CSF, 21° C., 0.5% shear strain, 10 Hz) | dissolution of colloidal suspension on pH adjustment [3] | increase in aqueous solubility relative to SEQ ID NO:6 ([1]; ammonium hydroxide buffer)
CCCCCCCCCCCCCCCC(=O)N[C@@H](CO)C(=O)N[C@@H](CC(C)C)C(=O)N[C@@H](CO)C(=O)N[C@@H](CC(C)C)C(=O)N[C@@H](C)C(=O)N[C@@H](C)C(=O)N[C@@H](C)C(=O)N[C@@H](CCC(=O)O)C(=O)N[C@H](C(=O)N[C@@H](CCCCN)C(=O)N[C@H](C(=O)N[C@@H](C)C(=O)N[C@H](C(=O)O)C(C)C)C(C)C)[C@@H](C)CC [SEQ ID NO:6, C16H31O-Ser-Leu-Ser-Leu-Ala-Ala-Ala-Glu-Ile-Lys-Val-Ala-Val-OH, reference compound] (Palmitoyl-SLSLAAAEIKVAV-OH) | relatively low solubility; also recorded: only sparingly soluble | < 1 | liquid-like | – | – | – | –
CCCCCCCCCCCCCCCC(=O)N[C@@H](CO)C(=O)N[C@@H](CC(C)C)C(=O)N[C@@H](CO)C(=O)N[C@@H](CC(C)C)C(=O)N[C@@H](C)C(=O)N[C@@H](C)C(=O)N[C@@H](C)C(=O)N[C@@H](CCC(=O)O)C(=O)N[C@@H](CCC(=O)O)C(=O)N[C@H](C(=O)N[C@@H](CCCCN)C(=O)N[C@H](C(=O)N[C@@H](C)C(=O)N[C@H](C(=O)O)C(C)C)C(C)C)[C@@H](C)CC [SEQ ID NO:2, C16H31O-Ser-Leu-Ser-Leu-Ala-Ala-Ala-Glu-Glu-Ile-Lys-Val-Ala-Val-OH] (Palmitoyl-SLSLAAAEEIKVAV-OH) | – | > 20 | significantly lower | resulting in a gel with the desired properties | an order of magnitude greater | go readily into solution | –
CCCCCCCCCCCCCCCC(=O)N[C@@H](CO)C(=O)N[C@@H](CC(C)C)C(=O)N[C@@H](CO)C(=O)N[C@@H](CC(C)C)C(=O)N[C@@H](C)C(=O)N[C@@H](C)C(=O)N[C@@H](C)C(=O)N[C@@H](CC(=O)O)C(=O)N[C@H](C(=O)N[C@@H](CCCCN)C(=O)N[C@H](C(=O)N[C@@H](C)C(=O)N[C@H](C(=O)O)C(C)C)C(C)C)[C@@H](C)CC [SEQ ID NO:4, C16H31O-Ser-Leu-Ser-Leu-Ala-Ala-Ala-Asp-Ile-Lys-Val-Ala-Val-OH] (Palmitoyl-SLSLAAADIKVAV-OH) | – | > 20 | – | – | – | go readily into solution | greater than 20 fold
